Source: patent publication US20100093864A1, “ANTI-INFECTIVE THIOUREA COMPOUNDS” (LICA PHARMACEUTICALS, priority 2006, published 2010)
Values after ≈ are worked out from the molar mass of the structure shown. Read-outs that look alike come from different tables or passages of the source.

How the values were obtained:
[1] = system: erythrocyte; assay: Erythrocyte hemolysis assay; assay type: cell-based; conditions: for 50% Haemolysis: concentration giving 50% haemolysis
[2] = system: MCF7 cells (ATCC: HTB 22); assay: MTT assay on MCF7 cells; assay type: cell-based
Description: The cytotoxicity effect of the compounds at different exposure times as a function of concentration has been tested in an erythrocyte hemolysis assay as well as an MTT assay on MCF7 cells (ATCC: HTB 22).

[3] = molecular target: bovine serum albumin (BSA) (Bos taurus, UniProt P02769); assay: Protein binding bioassay: MICs in presence or absence of 40 mg/ml BSA; assay type: in vitro ADME; conditions: MICs with or without 40 mg/ml BSA
Method: Protein binding was performed using a bioassay determining MICs in the presence or absence of 40 mg/ml bovine serum albumin (BSA).

[4] = system: Staphylococcus aureus; assay: Antibacterial screening (MIC), broth microdilution assay; assay type: cell-based; conditions: read-out: MIC Staph. aureus
Method: An initial screening for in vitro activity was conducted in a broth microtiter assay. The synthesized compounds were assayed against several […] such as Staphylococcus aureus and 2 different strains of E. coli (including a type strain and an antibiotic-susceptible strain). Following initial screening MICs were determined.
Staphylococcus aureus ATCC29213 Staphylococcus aureus ATCC33591 (MRSA) Eschericia coli ATCC25922 Eschericia coli ESS
The screening was performed with test compounds in 4 different concentrations.
MICs for ATCC type strains fall within the limits posted by the NCCLS (M100-S11) when tested against Vancomycin, Tetracycline and Gentamycin.

[5] = Staphylococcus aureus, broth microdilution per NCCLS M7-A5, strain not given

Chain of bovine serum albumin (BSA) (P02769 25-607): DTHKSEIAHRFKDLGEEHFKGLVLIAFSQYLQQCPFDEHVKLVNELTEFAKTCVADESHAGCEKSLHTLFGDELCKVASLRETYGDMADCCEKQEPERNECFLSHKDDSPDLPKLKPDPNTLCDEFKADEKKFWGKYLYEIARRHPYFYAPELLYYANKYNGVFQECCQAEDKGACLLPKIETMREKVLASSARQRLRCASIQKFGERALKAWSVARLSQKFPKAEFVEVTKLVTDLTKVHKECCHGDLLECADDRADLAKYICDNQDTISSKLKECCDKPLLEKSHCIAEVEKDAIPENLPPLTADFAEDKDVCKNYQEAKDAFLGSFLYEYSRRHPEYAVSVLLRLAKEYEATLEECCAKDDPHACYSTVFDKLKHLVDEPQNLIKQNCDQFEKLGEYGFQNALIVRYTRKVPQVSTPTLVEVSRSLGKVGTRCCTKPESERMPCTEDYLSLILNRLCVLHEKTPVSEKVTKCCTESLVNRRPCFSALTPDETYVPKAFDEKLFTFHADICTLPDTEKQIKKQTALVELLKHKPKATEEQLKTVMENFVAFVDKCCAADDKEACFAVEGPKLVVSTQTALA

Compound | Haemolysis 4x MIC ([1]; at 4x MIC) | 50% Haemolysis [1] | MTT [2] | fraction unbound [3] | MIC [4, 5] | MIC ([4]; Staphylococcus aureus) | MIC ([4]; broth microdilution per NCCLS M7-A5, strain not given) | Haemolysis 4x MIC ([1]; 4 x MIC)
FC(F)(F)c1cc(NC(=S)NCc2ccc(Cl)cc2)cc(C(F)(F)F)c1 [Compound F, 1-(3,5-Bis-trifluoromethyl-phenyl)-3-(4-chloro-benzyl)-thiourea] | <1% | 150 µM | 150 µM | < 0.03 | – | – | – | –
FC(F)(F)c1cc(NC(=S)NCCc2ccc(Cl)cc2Cl)cc(C(F)(F)F)c1 [Compound D, 1-(3,5-Bis-trifluoromethyl-phenyl)-3-[2-(2,4-dichloro-phenyl)-ethyl]-thiourea] | – | – | 150 µM | 0.02 | 0.3 µM (≈ 0.138 µg/mL) | – | – | –
FC(F)(F)c1cc(NC(=S)NCc2cccc(Cl)c2)cc(C(F)(F)F)c1 [Compound A, 1-(3,5-Bis-trifluoromethyl-phenyl)-3-(3-chloro-benzyl)-thiourea] | <1% | 75 µM | 150 µM | 0.02 | 0.6 µM (≈ 0.248 µg/mL) | – | – | –
FC(F)(F)c1cc(NC(=S)NCCc2cccc(Cl)c2)cc(C(F)(F)F)c1 [Compound G, 1-(3,5-Bis-trifluoromethyl-phenyl)-3-[2-(3-chloro-phenyl)-ethyl]-thiourea] | 0% | 75 µM | 150 µM | < 0.03 | 0.6 µM (≈ 0.256 µg/mL) | – | – | –
FC(F)(F)c1cc(NC(=S)NCc2ccc(Cl)cc2Cl)cc(C(F)(F)F)c1 [Compound B, 1-(3,5-Bis-trifluoromethyl-phenyl)-3-(2,4-dichloro-benzyl)-thiourea] | <1% | 150 µM | 150 µM | < 0.02 | – | – | – | –
FC(F)(F)c1cc(NC(=S)NCCOc2ccc(Cl)c(Cl)c2)cc(C(F)(F)F)c1 [Compound E, 1-(3,5-Bis-trifluoromethyl-phenyl)-3-[2-(3,4-dichloro-phenoxy)-ethyl]-thiourea] | – | 18.8 µM | – | 0.02 | 0.3 µM (≈ 0.143 µg/mL) | – | – | –
CN[C@H](CC(C)C)C(=O)N[C@H]1C(=O)N[C@@H](CC(N)=O)C(=O)N[C@H]2C(=O)N[C@H]3C(=O)N[C@H](C(=O)N[C@H](C(=O)O)c4cc(O)cc(O)c4-c4cc3ccc4O)[C@H](O)c3ccc(c(Cl)c3)Oc3cc2cc(c3O[C@@H]2O[C@H](CO)[C@@H](O)[C@H](O)[C@H]2O[C@H]2C[C@](C)(N)[C@H](O)[C@H](C)O2)Oc2ccc(cc2Cl)[C@H]1O [Vancomycin, reference compound] | 0% | 150 µM | >100 µM | – | – | 0.3 µM (≈ 0.435 µg/mL) | – | –
O=C(O)c1cn(C2CC2)c2cc(N3CCNCC3)c(F)cc2c1=O [Ciprofloxicin, reference compound] | 0% | 150 µM | >100 µM | – | – | – | 1.5 µM (≈ 0.497 µg/mL) | –
CC(NC(=S)Nc1cc(C(F)(F)F)cc(C(F)(F)F)c1)c1ccc(Br)cc1 (stereo not shown) [Compound C, 1-(3,5-Bis-trifluoromethyl-phenyl)-3-[1-(4-bromo-phenyl)-ethyl]-thiourea] | 15% | 37.5 µM | – | 0.02 | 0.3 µM (≈ 0.141 µg/mL) | – | – | –
Cc1onc(-c2c(Cl)cccc2Cl)c1C(=O)N[C@@H]1C(=O)N2[C@@H]1SC(C)(C)[C@@H]2C(=O)O [Dicloxacillin, reference compound] | – | 150 µM | >100 µM | – | 0.5 µM (≈ 0.235 µg/mL) | – | – | 0%
